Reference: patent US20090042905A1, “TRIAZOLE DERIVATIVES AS LIGANDS OF G-PROTEIN COUPLED RECEPTORS” (AETERNA ZENTARIS GmbH, priority 2007, published 2009)
Like-named read-outs stand apart in the source and are kept apart here.

Test system: male C57BL/6J mice
Assay: Fasting-induced feeding behavior (food intake) of mice
Assay type: in vivo
Conditions: oral dose 2 μmol per mouse, 30 min before food
Procedure: The effectiveness of selected compounds of the invention on fasting-induced feeding behavior of mice was investigated.
The experiments were performed according to Asakawa A et al. (Asakawa A et al., Gut 2003, 52: 947-952) with the following technical details:
Preparation of compounds of the invention: dissolved in dimethylsulfoxide (DMSO) and then diluted in distilled water (i.e. 0.5, 1 and 10% DMSO for 0.5, 1 and 2 μmol/mouse, respectively);
Preparation of reference substance (positive control) sibutramine: dissolved in distilled water;
Control substance (negative vehicle control): 10% DMSO in distilled water (compounds of the invention); distilled water (sibutramine);
Route of administration: p.o.;
Pretreatment time: 30 min before presenting the food to the animals;
Volume of administration: 0.5 ml/mouse;
Animals: male C57BL/6J mice;
Body weight range: 18.3-21.4 g

[1] = 20 min, read-out: change of food intake - compounds versus vehicle treated negative control, at 20 min
[2] = 1 h, read-out: change of food intake - compounds versus vehicle treated negative control, at 1 h
[3] = 2 h, read-out: change of food intake - compounds versus vehicle treated negative control, at 2 h
[4] = 4 h, read-out: change of food intake - compounds versus vehicle treated negative control, at 4 h

Row | SMILES | change in vivo at 2 µmol/mouse [1] [%] | change in vivo at 2 µmol/mouse [2] [%] | change in vivo at 2 µmol/mouse [3] [%] | change in vivo at 2 µmol/mouse [4] [%]
1 | CC(C)(N)C(=O)N[C@H](Cc1c[nH]c2ccccc12)c1nnc(CCc2c[nH]c3ccccc23)n1Cc1cccc2ccccc12 [Compound 5, (R)-N-(1-(5-(2-(1H-indol-3-yl)ethyl)-4-(naphthalen-1-ylmethyl)-4H-1,2,4-triazol-3-yl)-2-(1H-indol-3-yl)ethyl)-2-amino-2-methylpropanamide] | -56 | -58 | -53 | -51
2 | CC(C)(N)C(=O)N[C@H](Cc1c[nH]c2ccccc12)c1nnc(CCCc2c[nH]c3ccccc23)n1Cc1cccc2ccccc12 [Compound 11, (R)-N-(1-(5-(3-(1H-indol-3-yl)propyl)-4-(naphthalen-1-ylmethyl)-4H-1,2,4-triazol-3-yl)-2-(1H-indol-3-yl)ethyl)-2-amino-2-methylpropanamide] | -56 | -65 | -55 | -55
3 | COc1ccc(Cn2c(CCc3c[nH]c4ccccc34)nnc2[C@@H](Cc2c[nH]c3ccccc23)NC(=O)[C@@H]2C=CCN2)cc1 [Compound 190, (2S)-N-((R)-1-(5-(2-(1H-indol-3-yl)ethyl)-4-(4-methoxybenzyl)-4H-1,2,4-triazol-3-yl)-2-(1H-indol-3-yl)ethyl)-2,5-dihydro-1H-pyrrole-2-carboxamide] | -39 | -30 | -33 | -30
4 | Cc1ccc(Cn2c(CCc3ccccc3)nnc2[C@@H](Cc2c[nH]c3ccccc23)NC(=O)C(C)(C)N)cc1 [Compound 37, (R)-N-(1-(4-(4-methylbenzyl)-5-phenethyl-4H-1,2,4-triazol-3-yl)-2-(1H-indol-3-yl)ethyl)-2-amino-2-methylpropanamide] | -37 | -49 | -51 | -34
5 | CC(C)(N)C(=O)N[C@H](Cc1c[nH]c2ccccc12)c1nnc(CCc2c[nH]c3ccccc23)n1Cc1ccc(Cl)c(Cl)c1 [Compound 28, (R)-N-(1-(5-(2-(1H-indol-3-yl)ethyl)-4-(3,4-dichlorobenzyl)-4H-1,2,4-triazol-3-yl)-2-(1H-indol-3-yl)ethyl)-2-amino-2-methylpropanamide] | -17 | -28 | -21 | -18
6 | CC(C)(N)C(=O)N[C@H](Cc1c[nH]c2ccccc12)c1nnc(CCc2ccccc2)n1Cc1ccc(Cl)c(Cl)c1 [Compound 122, (R)-N-(1-(4-(3,4-dichlorobenzyl)-5-phenethyl-4H-1,2,4-triazol-3-yl)-2-(1H-indol-3-yl)ethyl)-2-amino-2-methylpropanamide] | -52 | -42 | -28 | -16
7 | CC(C)(N)C(=O)N[C@H](Cc1c[nH]c2ccccc12)c1nnc(CCc2ccccc2)n1CCc1ccccc1 [Compound 117, (R)-N-(1-(4,5-diphenethyl-4H-1,2,4-triazol-3-yl)-2-(1H-indol-3-yl)ethyl)-2-amino-2-methylpropanamide] | -31 | -24 | -11 | -6
8 | CC(C)(N)C(=O)N[C@H](Cc1c[nH]c2ccccc12)c1nnc(CCc2ccccc2)n1Cc1cccc2ccccc12 [Compound 27, (R)-N-(2-(1H-indol-3-yl)-1-(4-(naphthalen-1-ylmethyl)-5-phenethyl-4H-1,2,4-triazol-3-yl)ethyl)-2-amino-2-methylpropanamide] | -57 | -58 | -48 | -38
9 | COc1ccc(Cn2c(CCc3c[nH]c4ccccc34)nnc2[C@@H](Cc2c[nH]c3ccccc23)NC(=O)C2CCNCC2)cc1 [Compound 45, (R)-N-(1-(5-(2-(1H-indol-3-yl)ethyl)-4-(4-methoxybenzyl)-4H-1,2,4-triazol-3-yl)-2-(1H-indol-3-yl)ethyl)piperidine-4-carboxamide] | -36 | -28 | -33 | -34
10 | CC(C)(N)C(=O)N[C@H](Cc1c[nH]c2ccccc12)c1nnc(Cc2ccccc2)n1Cc1ccc(Cl)c(Cl)c1 [Compound 118, (R)-N-(1-(4-(3,4-dichlorobenzyl)-5-benzyl-4H-1,2,4-triazol-3-yl)-2-(1H-indol-3-yl)ethyl)-2-amino-2-methylpropanamide] | -31 | -30 | -25 | -24
11 | COc1ccc(Cn2c(CCc3ccccc3)nnc2[C@@H](Cc2c[nH]c3ccccc23)NC(=O)c2cnccn2)c(OC)c1 [Compound 66, (R)-N-(1-(4-(2,4-dimethoxybenzyl)-5-phenethyl-4H-1,2,4-triazol-3-yl)-2-(1H-indol-3-yl)ethyl)pyrazine-2-carboxamide] | -56 | -40 | -45 | -51
12 | O=C(N[C@H](Cc1c[nH]c2ccccc12)c1nnc(CCc2ccccc2)n1-c1ccccc1)C1CCNCC1 [Compound 142, N-((R)-2-(1H-indol-3-yl)-1-(5-phenethyl-4-phenyl-4H-1,2,4-triazol-3-yl)ethyl)piperidine-4-carboxamide] | -56 | -57 | -55 | -49
13 | COc1ccc(Cn2c(CCc3ccccc3)nnc2[C@@H](Cc2c[nH]c3ccccc23)NC(=O)C2CCNCC2)c(OC)c1 [Compound 62, (R)-N-(1-(4-(2,4-dimethoxybenzyl)-5-phenethyl-4H-1,2,4-triazol-3-yl)-2-(1H-indol-3-yl)ethyl)piperidine-4-carboxamide] | 56 | 68 | 50 | 26
14 | COc1ccc(Cn2c(CCc3ccccc3)nnc2[C@@H](Cc2c[nH]c3ccccc23)NC(=O)[C@@H]2CCCCN2)cc1 [Compound 48, (S)-N-((R)-1-(4-(4-methoxybenzyl)-5-phenethyl-4H-1,2,4-triazol-3-yl)-2-(1H-indol-3-yl)ethyl)piperidine-2-carboxamide] | -22 | -30 | -27 | -21
15 | COc1ccc(Cn2c(CCc3c[nH]c4ccccc34)nnc2[C@@H](Cc2c[nH]c3ccccc23)NC(=O)C2CCNCC2)c(OC)c1 [Compound 31, (R)-N-(1-(5-(2-(1H-indol-3-yl)ethyl)-4-(2,4-dimethoxybenzyl)-4H-1,2,4-triazol-3-yl)-2-(1H-indol-3-yl)ethyl)piperidine-4-carboxamide] | 50 | 20 | 16 | 9
16 | COc1ccc(Cn2c(CCc3ccccc3)nnc2[C@@H](Cc2c[nH]c3ccccc23)NC(=O)C(C)(C)N)c(OC)c1 [Compound 179, N-((R)-1-(4-(2,4-dimethoxybenzyl)-5-phenethyl-4H-1,2,4-triazol-3-yl)-2-(1H-indol-3-yl)ethyl)-2-amino-2-methylpropanamide] | -25 | -39 | -40 | -38
17 | COc1ccc(Cn2c(CCc3ccccc3)nnc2[C@@H](Cc2c[nH]c3ccccc23)NC(=O)[C@H]2CCCCN2)cc1 [Compound 49, (R)-N-((R)-1-(4-(4-methoxybenzyl)-5-phenethyl-4H-1,2,4-triazol-3-yl)-2-(1H-indol-3-yl)ethyl)piperidine-2-carboxamide] | -59 | -48 | -39 | -23
